Molecular target: T1, human muscarinic acetylcholine M3 receptor (Homo sapiens, UniProt P20309)
T1 construct: expressed in transfected cells; host or cells: CHO cells (stably transfected), membrane preparation
Test: competitive filtration binding assay with [3H] n-methyl scopolamine (NMS)
Conditions: membranes from CHO cells stably transfected with human M3 receptor, [3H]NMS 0.25 nM
Method: The affinity (Ki) of agents of the invention at the human muscarinic acetylcholine M3 receptor can be determined in a competitive filtration binding assay with the radio-labelled antagonist [^3H] n-methyl scopolamine methyl chloride. (NMS):
Membranes prepared from CHO cells stably transfected with human M3 receptor at 10 μg protein/well are incubated with serial dilutions of the agents of the invention, [^3H]NMS (0.25 nM) and assay buffer (20 mM HEPES, 1 mM MgCl2 at pH 7.4) for 17 hours at room temperature. The assay is carried out in a 250 μL final volume, in the presence of a final dimethyl sulfoxide concentration of 1%. Total binding of [^3H]NMS is determined in the absence of the agents of the invention with a corresponding substituted volume of assay buffer. Non-specific binding of [^3H] NMS is determined in the presence of 300 nM ipratropium bromide. Following the incubation period, the membranes are harvested onto a Unifilter™ GF/B filter plate containing 0.05% polyethyleneimine, using a Brandel™ filtration harvester 9600. Filter plates are dried for two hours at 35° C. before the addition of Microscint™ ‘O’ cocktail, and read on a Packard Topcount™ scintillator using a ^3H-Scintillation protocol. All IC50s are calculated with the aid of XL-Fit graph package and Ki values derived using the Cheng-Prusoff correction (Cheng Y., Prusoff W. H. (1973) Biochem. Pharmacol 22 3099-3109).

[1] = M3 Ki, 17 hours at room temperature, Cheng-Prusoff correction

T1 sequence (P20309 whole entry): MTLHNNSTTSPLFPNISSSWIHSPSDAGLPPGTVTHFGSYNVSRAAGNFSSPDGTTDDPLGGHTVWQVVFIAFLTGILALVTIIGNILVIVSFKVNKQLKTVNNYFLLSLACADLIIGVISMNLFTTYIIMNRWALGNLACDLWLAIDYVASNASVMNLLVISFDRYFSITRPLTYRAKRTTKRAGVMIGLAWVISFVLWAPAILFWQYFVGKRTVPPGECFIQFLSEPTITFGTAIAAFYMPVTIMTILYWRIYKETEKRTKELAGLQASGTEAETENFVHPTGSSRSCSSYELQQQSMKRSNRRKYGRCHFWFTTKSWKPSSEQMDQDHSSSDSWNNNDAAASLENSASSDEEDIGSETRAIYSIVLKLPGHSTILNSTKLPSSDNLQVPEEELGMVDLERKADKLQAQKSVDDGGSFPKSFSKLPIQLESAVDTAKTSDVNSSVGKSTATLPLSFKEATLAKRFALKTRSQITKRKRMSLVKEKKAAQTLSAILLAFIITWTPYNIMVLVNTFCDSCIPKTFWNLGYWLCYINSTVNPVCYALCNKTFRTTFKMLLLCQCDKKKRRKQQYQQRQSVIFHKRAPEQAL

O=C(C[N+]12CCC(CC1)[C@@H](OC(=O)C(O)(c1ccccc1Cl)c1ccccc1Cl)C2)Nc1ccon1 [Example 1, (R)-3-[2,2-Bis-(2-chloro-phenyl)-2-hydroxy-acetoxy]-1-(isoxazol-3-ylcarbamoylmethyl)-1-azonia-bicyclo[2.2.2]octane bromide]
Ki [1]: 2300 pM

Cc1ccc(C(O)(C(=O)O[C@H]2C[N+]3(CC(=O)Nc4ccon4)CCC2CC3)c2ccc(C)cc2)cc1 [Example 2, (R)-3-(2-Hydroxy-2,2-di-p-tolyl-acetoxy)-1-(isoxazol-3-ylcarbamoylmethyl)-1-azonia-bicyclo[2.2.2]octane bromide]
Ki [1]: 1400 pM

CC(C(=O)O[C@H]1C[N+]2(CC(=O)Nc3ccon3)CCC1CC2)(c1ccccc1)c1ccccc1 [Example 4, (R)-3-(2,2-Diphenyl-propionyloxy)-1-(isoxazol-3-ylcarbamoylmethyl)-1-azonia-bicyclo[2.2.2]octane bromide]
Ki [1]: 650 pM

O=C(C[N+]12CCC(CC1)[C@@H](OC(=O)C(c1ccccc1)c1ccccc1)C2)Nc1ccon1 [Example 5, (R)-3-Diphenylacetoxy-1-(isoxazol-3-ylcarbamoylmethyl)-1-azonia-icyclo[2.2.2]octane bromide]
Ki [1]: 630 pM

O=C(C[N+]12CCC(CC1)[C@@H](OC(=O)C(O)(c1ccccc1)C1CCCCC1)C2)Nc1ccon1 (stereo partly drawn) [Example 8, (R)-3-(2-Cyclohexyl-2-hydroxy-2-phenyl-acetoxy)-1-(isoxazol-3-ylcarbamoylmethyl)-1-azonia-bicyclo[2.2.2]octane bromide]
Ki [1]: 750 pM
Ki (M3 pKi): 12.6 pM

O=C(C[N+]12CCC(CC1)[C@@H](OC(=O)C(O)(c1cccs1)C1CCCCC1)C2)Nc1ccon1 (stereo partly drawn) [Example 10, (R)-3-(2-Cyclohexyl-2-hydroxy-2-thiophen-2-yl-acetoxy)-1-(isoxazol-3-ylcarbamoylmethyl)-1-azonia-bicyclo[2.2.2]octane bromide]
Ki (M3 pKi): 11.5 pM

O=C(C[N+]12CCC(CC1)[C@@H](OC(=O)C(O)(c1ccccc1)C1CCCC1)C2)Nc1ccon1 (stereo partly drawn) [Example 11, (R)-3-(2-Cyclopentyl-2-hydroxy-2-phenyl-acetoxy)-1-(isoxazol-3-ylcarbamoyl-methyl)-1-azonia-bicyclo[2.2.2]octane bromide]
Ki (M3 pKi): 6.31 pM

Source: patent US7723356B2, “Quinuclidine derivatives and their use as muscarinic m3 receptor antagonists” (Novartis AG, priority 2004, dated 2010)
